Laboratory results taken from patent US4361577A, “ω-Nor-cycloalkyl-13,14-dehydro-prostaglandins and process for their preparation” (Carlo Erba - S.p.A., priority 1974, dated 1982).

Tests used:
[1] = target: T1, 15-hydroxy-prostaglandin-dehydrogenase (Homo sapiens, UniProt P15428); experiment: inhibition of 15-hydroxy-prostaglandin-dehydrogenase drawn from human placenta, in vitro; format: biochemical
T1 construct: 15-hydroxy-prostaglandin-dehydrogenase drawn from human placenta; from tissue; host or cells: human placenta
T1 sequence (P15428 1-266): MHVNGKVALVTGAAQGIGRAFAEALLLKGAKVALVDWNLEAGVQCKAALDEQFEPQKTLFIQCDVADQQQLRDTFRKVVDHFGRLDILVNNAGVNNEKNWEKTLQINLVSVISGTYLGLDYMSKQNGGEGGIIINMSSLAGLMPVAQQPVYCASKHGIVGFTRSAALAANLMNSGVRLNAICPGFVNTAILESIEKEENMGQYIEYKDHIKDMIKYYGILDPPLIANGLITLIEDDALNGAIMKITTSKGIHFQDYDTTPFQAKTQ
Excerpt: The compounds of formula (I) furthermore inhibit the use of natural prostaglandins as substrate by the enzyme.

guinea pig ileum = guinea pig ileum test (spasmogenic activity); details: relative to PGF2α = 1 (conventional value); in vitro, 35° C., Tyrode solution
Excerpt: (§1) The same compound (13,14-dehydro-17-cyclohexyl-20,19,18-trinor-PGF2α) was compared with PGF2α and with the olefinic analogue 5c,13t-9α,11α,15S-trihydroxy-20,19,18-trinor-17-cyclohexyl-prosta-5,13-dienoic acid (17-cyclohexyl-20,19,18-trinor-PGF2α) in the following in vitro tests: guinea pig ileum test, rat uterus test, rat stomach fundus. The results are reported in the following Table, wherein to the activity of PGF2 the conventional value of 1 was given in all the tests. The three tests relate to the determination of the spasmogenic activity.
The guinea pig ileum test consisted of a 10 ml thermostatic bath held at 35° C., containing the ileum of a male guinea pig, under 0.5 g traction, carboxygenated in a Tyrode solution; this was left for 30 minutes to stabilize before the compounds were tested. The response was recorded using a isotonic frontal lever, long enough to amplify the response 4.5 times.

rat uterus [2] = experiment: antagonism of PGF2α on the rat uterus; details: tested against PGF2α
pregnant rat = experiment: luteolytic activity in the pregnant rat at the 9th-10th day of pregnancy; format: in vivo; details: relative to PGF2α = 1 (conventional value)
Excerpt: The action selectivity of the 13,14-dehydro compounds on the miometrium and on the reproductive apparatus is also proven by the remarkable increase of the luteolytic activity in the pregnant rat at the 9th-10th day of pregnancy. In fact, if the conventional value of 1 is given to the luteolytic activity of PGF2α, the value of 30 is to be given to the luteolytic acitivity of 17-cyclohexyl-20,19,18-trinor-PGF2α, and the value of 200 to the luteolytic activity of 13,14-dehydro-17-cyclohexyl-20,19,18-trinor-PGF2α.

rat uterus [3] = experiment: rat uterus test (spasmogenic activity); details: for ratio Uterus/Ileum / ratio Uterus/Stomach Fundus: ratio of activities relative to PGF2α; for ratio Uterus/Ileum: rat uterus / guinea pig ileum; for ratio Uterus/Stomach Fundus: rat uterus / rat stomach fundus; for spasmogenic activity, Rat Uterus: relative to PGF2α = 1 (conventional value), in vitro, 29° C., oestrogenized rat uteri
Excerpt: as §1
The rat uterus test consisted of a 10 ml thermostatic bath held at 29° C., in which oestrogenized rat uteri under 0.5 g traction were carboxygenated in a Dejalon saline solution. The preparation was left to stabilize for 30 minutes before the compounds were tested. Response was measured using a isotonic frontal lever, long enough to amplify the response 4.5 times.

rat stomach fundus = rat stomach fundus test (spasmogenic activity); details: relative to PGF2α = 1 (conventional value); in vitro, male Sprague-Dawley rats
Excerpt: as §1
The rat stomach fundus test was performed in the following manner: male albino rats of the Sprague-Dawley strain weighing 200-250 g were utilized. The stomach fundus strip was prepared according to Vane (J. R. Vane, Brit. J. Pharmacol. 12, 344, (1957)). The strip was suspended in a 10 ml organ bath containing Tyrode solution gassed with a mixture of O2 and CO2 (95:5%). The contractions of the strip were recorded using a isotonic frontal lever as in the preceding tests.

Row | SMILES | Ki ([1]; inhibition with respect to PGE2) [µM] | Ki ([1]; inhibition with respect to PGF2α) [µM] | kind of inhibition ([1]; with respect to PGE2) | kind of inhibition ([1]; with respect to PGF2α) | spasmogenic activity, Guinea Pig Ileum (guinea pig ileum) | antagonism of PGF2α on the rat uterus (rat uterus [2]) | luteolytic activity (pregnant rat) | ratio Uterus/Ileum (rat uterus [3]) | ratio Uterus/Stomach Fundus (rat uterus [3]) | spasmogenic activity, Rat Uterus (rat uterus [3]) | spasmogenic activity, Rat Stomach Fundus (rat stomach fundus)
1 | O=C(O)CCCC=CCC1C(O)CC(O)C1C#CC(O)CCC1CCCCC1 (stereo not drawn) [5c-9α,11α,15S-trihydroxy-20,19,18-trinor-17-cyclohexyl-prost-5-en-13-ynoic acid] | 468 | 152 | noncompetitive | partially competitive | 0.17 | able to antagonize PGF2α specifically and selectively | 200 | 91 | 8 | 15.7 | 1.96
2 | O=C(O)CCCC=CCC1C(O)CC(O)C1C=CC(O)CCC1CCCCC1 (stereo not drawn) [17-cyclohexyl-20,19,18-trinor-PGF2α, 5c,13t-9α,11α,15S-trihydroxy-20,19,18-trinor-17-cyclohexyl-prosta-5,13-dienoic acid] | – | – | – | – | 0.60 | – | 30 | 5.4 | 1.7 | 3.23 | 1.86
3 | CCCCC[C@H](O)/C=C/[C@@H]1[C@@H](C/C=C\CCCC(=O)O)[C@@H](O)C[C@H]1O [PGF2α] | – | – | – | – | – | – | 1 | 1 | 1 | – | –
